These results are taken from US20210060060A1, “COMPOSITIONS AND METHODS FOR THE TREATMENT OF LUNG EMPHYSEMA AND OTHER FORMS OF COPD” (Emphysema Solutions BV, priority 2018, published 2021).

Data set [1] concerns pulmonary rat fibroblasts. The data set can be described thus: Fibroblast cell cultures: vitamin K or magnesium sulfate on top of copper sulfate (6c). It counts as cell-based. The conditions noted are these: added to copper sulfate (+8*initial copper concentration in medium); for accumulation of collagen: compared to copper sulfate monotherapy. The source says:
(§1) Cell cultures with pulmonary rat fibroblasts. • 7.
(§2) We first measured copper levels in the fibroblast medium.

For data set [2], the system named is porcine pancreatic elastase (PPE)-induced emphysema. The data set can be described thus: Porcine pancreatic elastase (PPE)-induced emphysema model in mice. The protocol: Methods: In order to assess the effects of copper sulfate plus heparin on both elastin and collagen metabolism in vivo, we used a porcine pancreatic elastase (PPE)-induced emphysema model. Study was conducted in male BALB/c mice aged 7 weeks with a starting body weight of about 25 g. During the study period, all mice were housed in a conventional animal house with a 12/12 h light-dark cycle in filter-top cages and supplied with pelleted food and water ad libitum. 1.5 U porcine pancreatic elastase in 25 μL saline was intratracheally administered on day 1 under light anesthesia. […] On day 35, mice were anesthetized intraperitoneally with a mixture of xylazine (8.5 mg/kg) and ketamine (130 mg/kg), they were tracheotomized and placed in a whole-body plethysmograph to assess lung function. After lung function measurements, mice were euthanized by an intracardiac administration of pentobarbital. The left lung will be snap-frozen in liquid nitrogen and stored at −80° C. for subsequent gene expression studies where ELN, LOX and LOXL1 were measured. The right lung was fixed in 6% paraformaldehyde at a constant hydrostatic pressure of 25 cm fluid column for 24 h. After dehydration and embedding in paraffin, sagittal sections will be stained with various stains and used for histological analyses to measure airspace enlargement (mean linear intercept); and subsequently this lung was used for measuring concentrations of both DES and insoluble collagen. Brains were taken out to measure copper concentrations.

The next data set concerns rats' lungs. The note with it: copper repletion after copper-deficient diet, ref. [15]; cited from earlier work.
The test system of the next data set is copper-deficient chicks. The conditions noted are these: copper repletion in copper-deficient chicks, ref. [7]; cited from earlier work.
The subject of data set [3] is pulmonary rat fibroblasts.
Source text: as §1, §2

Where [4] appears, read: fibroblasts grown 21 days, copper sulfate added +0.5 to +32*initial copper concentration in medium.
The mark [5] stands for this setting: intratracheal on day 1, 8, 15, 22 and 29, day 35, compared to placebo.

Read-outs that look alike come from different tables or passages of the source.

For the molecule `CC1=C(C/C=C(\C)CCC[C@H](C)CCC[C@H](C)CCCC(C)C)C(=O)c2ccccc2C1=O` [vitamin K1], in data set [1], the DES accumulation result is “additional stimulating effect”, the ELN gene expression entry is reported as “no stimulating effect”, the LOX gene expression result is recorded as “no stimulating effect” and the LOXL1 gene expression result is given as “no stimulating effect”. Further, in data set [1], the insoluble elastin levels entry is listed as “additional stimulating effect”, the tropo-elastin levels entry is “no stimulating effect” and the accumulation of collagen entry is “no additional stimulating effect”.
On to `[Cu]` [copper], for which the “effect on cerebral copper concentrations” value in data set [2] (intratracheally administered, mice) is “no effect”. Besides, the “ultrastructure of pulmonary elastin” value with rats' lungs is on record as “restored the ultrastructure of pulmonary elastin to near normal”. The “deposition of protease-resistant elastin fibers” value in the data set with copper-deficient chicks is given as “near normal values”.
In the case of `CC(C)=CCC/C(C)=C/CC/C(C)=C/CC/C(C)=C/CC1=C(C)C(=O)c2ccccc2C1=O` [vitamin K2], in data set [1], the DES accumulation result is on record as “additional stimulating effect”, the ELN gene expression entry is listed as “no stimulating effect”, the LOX gene expression entry was “no stimulating effect” and the LOXL1 gene expression result is listed as “no stimulating effect”. Further, in data set [1], the insoluble elastin levels result is “additional stimulating effect”, the tropo-elastin levels entry is listed as “no stimulating effect” and the accumulation of collagen entry is listed as “no additional stimulating effect”.
As to heparin, the “effect on systemic coagulation” value in data set [2] (mouse, in vivo) is given as “did not have any effect”.
As to `O=S(=O)([O-])[O-].[Mg+2]` [magnesium sulfate], in data set [1], the DES accumulation result is reported as “additional stimulating effect”, the ELN gene expression entry is on record as “no stimulating effect”, the LOX gene expression result is on record as “no stimulating effect” and the LOXL1 gene expression result is given as “no stimulating effect”. For the same molecule, in data set [1], the tropo-elastin levels result is “no stimulating effect” and the accumulation of collagen result is given as “no additional stimulating effect”.
Take `O=S(=O)([O-])[O-].[Cu+2]` [copper sulfate]: in data set [3] (added on top of the baseline copper (+)), the “copper concentration at which the dose response curve with regard to DES levels topped off” value is given as ~8 *initial copper concentration in the fibroblast medium. In addition, in data set [3] (setting [4]), the DES levels entry was “increased”, the ELN gene expression result was “did not have any effect”, the LOX activity entry is “increased” and the LOX gene expression entry was “increased”. In data set [3] (setting [4]), the LOXL1 gene expression result is given as “increased”. For the same molecule, in data set [2] (conclusion of the mouse study), the “accumulation of collagen in the lungs” value was “induced accumulation and maturation of collagen fibers”; the “elastin repair process / repair of damaged elastin fibers” value is on record as “very effectively stimulated”. For the same molecule, in data set [2] (setting [5]), the “DES levels in lung tissue” value is “higher”, the Mean linear intercept result is “lower” and the “hydroxyproline levels in lung” value was “elevated”. The “hyperinflation in the lung function tests (total lung capacity)” value in data set [2] (intratracheal on day 1, 8, 15, 22 and 29, measured day 35, compared to placebo) is on record as “More hyperinflation was present in the lung function tests of mice from the placebo group”.
